Test results: ChEMBL document CHEMBL1201862, “PubChem BioAssay data set” (2004)
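The compound was tested at five concentrations on cells cultured in 96-well plates, with a 48-hour exposure period. Here, GI50 denotes the concentration required for 50% inhibition of growth.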 Calls of active or inactive are those of the source. Cut-off read from the data, not from the text of the source: active = GI50 up to about 1.1 µM and inactive = higher.

Assays:
Assay in all cases: NCI anticancer screen, dose series, 48 h
SF-539 = system: SF-539
A549 = system: A549
KM12 = system: KM12
HL-60 = system: HL-60
DLD-1 = system: DLD-1
DMS-273 = system: DMS-273
SW-620 = system: SW-620
HOP-92 = system: HOP-92
CCRF-CEM = system: CCRF-CEM
UACC-257 = system: UACC-257
OVCAR-3 = system: OVCAR-3
XF498 = system: XF498
HOP-62 = system: HOP-62
SN12C = system: SN12C
EKVX = system: EKVX
SK-MEL-28 = system: SK-MEL-28
K562 = system: K562
HCT-116 = system: HCT-116
ACHN = system: ACHN
HCC 2998 = system: HCC 2998
HCT-15 = system: HCT-15
SR = system: SR
UACC-62 = system: UACC-62
SF-295 = system: SF-295
U-251 = system: U-251
OVCAR-8 = system: OVCAR-8
SF-268 = system: SF-268
LXFL 529 = system: LXFL 529
RXF 393 = system: RXF 393
NCI-H460 = system: NCI-H460
MOLT-4 = system: MOLT-4
CAKI-1 = system: CAKI-1
M14 = system: M14
OVCAR-4 = system: OVCAR-4
UO-31 = system: UO-31
KM-20L2 = system: KM-20L2
OVCAR-5 = system: OVCAR-5
SNB-78 = system: SNB-78
SK-OV-3 = system: SK-OV-3
TK-10 = system: TK-10
RPMI-8226 = system: RPMI-8226
COLO 205 = system: COLO 205
HOP-18 = system: HOP-18
M19-MEL = system: M19-MEL
Malme-3M = system: Malme-3M
SNB-75 = system: SNB-75
LOX IMVI = system: LOX IMVI
786-0 = system: 786-0
IGROV-1 = system: IGROV-1
NCI-H23 = system: NCI-H23
DMS-114 = system: DMS-114
HT-29 = system: HT-29
NCI-H226 = system: NCI-H226
SK-MEL-5 = system: SK-MEL-5
A498 = system: A498
RXF 631 = system: RXF 631
SK-MEL-2 = system: SK-MEL-2

**Q.** What does the source list for `C/C(=N\NC(N)=S)c1cc(C)c(C)cc1C`?
**A.** GI50 (SF-539): 35.5 µM (inactive); GI50 (A549): 45.2 µM (inactive); GI50 (KM12): 25.5 µM (inactive); GI50 (HL-60): 21.7 µM (inactive); GI50 (DLD-1): 53.3 µM (inactive); GI50 (DMS-273): 19.3 µM (inactive); GI50 (SW-620): 44 µM (inactive); GI50 (HOP-92): > 100 µM (inactive); GI50 (CCRF-CEM): 29.9 µM (inactive); GI50 (UACC-257): 90.8 µM (inactive); GI50 (OVCAR-3): 24.4 µM (inactive); GI50 (XF498): 23 µM (inactive); GI50 (HOP-62): > 100 µM (inactive); GI50 (SN12C): > 100 µM (inactive); GI50 (EKVX): 8.69 µM (inactive); GI50 (SK-MEL-28): 86.7 µM (inactive); GI50 (K562): 40.3 µM (inactive); GI50 (HCT-116): > 100 µM (inactive); GI50 (ACHN): > 100 µM (inactive); GI50 (HCC 2998): 52.5 µM (inactive); GI50 (HCT-15): 83.8 µM; GI50 (SR): 37 µM (inactive); GI50 (UACC-62): 30.9 µM (inactive); GI50 (SF-295): 47 µM (inactive); GI50 (U-251): 48.6 µM (inactive); GI50 (OVCAR-8): > 100 µM (inactive); GI50 (SF-268): 62.4 µM (inactive); GI50 (LXFL 529): 27.7 µM (inactive); GI50 (RXF 393): 29 µM (inactive); GI50 (NCI-H460): 43.9 µM (inactive); GI50 (MOLT-4): 20.2 µM (inactive); GI50 (CAKI-1): > 100 µM (inactive); GI50 (M14): 37.2 µM (inactive); GI50 (OVCAR-4): 30.9 µM (inactive); GI50 (UO-31): 56.8 µM (inactive); GI50 (KM-20L2): 35.6 µM (inactive); GI50 (OVCAR-5): 20.1 µM (inactive); GI50 (SNB-78): > 100 µM (inactive); GI50 (SK-OV-3): > 100 µM (inactive); GI50 (TK-10): 89.5 µM (inactive); GI50 (RPMI-8226): 31.3 µM (inactive); GI50 (COLO 205): 27.7 µM (inactive); GI50 (HOP-18): 62.8 µM (inactive); GI50 (M19-MEL): 25.9 µM (inactive); GI50 (Malme-3M): 32.6 µM (inactive); GI50 (SNB-75): 30.6 µM (inactive); GI50 (LOX IMVI): 70.8 µM (inactive); GI50 (786-0): 93.8 µM (inactive); GI50 (IGROV-1): 31 µM (inactive); GI50 (NCI-H23): 41.7 µM (inactive); GI50 (DMS-114): 21 µM (inactive); GI50 (HT-29): 20.2 µM (inactive); GI50 (NCI-H226): > 100 µM (inactive); GI50 (SK-MEL-5): 57 µM (inactive); GI50 (A498): 81.7 µM (inactive); GI50 (RXF 631): 57.7 µM (inactive); GI50 (SK-MEL-2): 34.6 µM (inactive)
